Test results: PMC7132332 (Biochemistry, 2020)

Target: T1, WecA (Escherichia coli, UniProt P0AC78)
T1 sequence (P0AC78 1-367): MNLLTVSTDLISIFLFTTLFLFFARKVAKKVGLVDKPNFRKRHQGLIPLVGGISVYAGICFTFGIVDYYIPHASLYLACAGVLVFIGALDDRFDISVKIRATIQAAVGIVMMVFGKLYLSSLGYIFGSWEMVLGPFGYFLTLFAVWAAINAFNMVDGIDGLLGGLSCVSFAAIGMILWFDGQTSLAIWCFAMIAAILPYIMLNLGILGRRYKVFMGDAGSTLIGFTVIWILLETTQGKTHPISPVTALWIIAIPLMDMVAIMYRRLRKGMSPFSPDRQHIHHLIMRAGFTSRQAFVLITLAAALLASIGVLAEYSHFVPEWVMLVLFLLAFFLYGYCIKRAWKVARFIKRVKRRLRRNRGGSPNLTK
Assay: HPLC transferase assay with cell envelope fraction
Format: biochemical
Conditions: 2CN- or NBD-B(4Z)P; overexpressed recombinant WecA; bicine pH 8.5, MgCl2, cholate, 37 °C

Structure (SMILES): CC(=O)N[C@H]1[C@@H](OP(=O)(O)OP(=O)(O)OC[C@H]2O[C@@H](n3ccc(=O)[nH]c3=O)[C@H](O)[C@@H]2O)O[C@H](CO)[C@@H](O)[C@@H]1O [UDP-GlcNAc]
- HPLC transferase assay with cell envelope fraction: able to convert fl-BPs with far lower concentrations of UDP-GlcNAc
